Biological target: T1, hα4 and β1 integrins (Homo sapiens, UniProt P05556+P13612)
T1 construct: expressed in transfected cells; host or cells: CHO cells
Experiment: In vitro inhibition of binding between CHO cells expressing hα4 and β1 integrins and Eu3+-hVCAM-1 D1D7-IgG
Settings: for Ki: CHO cells expressing hα4 and β1 integrins, Eu3+-hVCAM-1 D1D7-IgG ligand, without HSA; for IC50: in the presence of 3% human serum albumin (HSA final concentration 3%)
Procedure: CHO cells which forcibly expressed hα4 and β1 integrins through transfection thereof, were inoculated into a Costar 3599 plate (3×10^4 cells/100 μl/well), and cultured for two days. The cells in the wells were washed two times with buffer A*, and then Eu^3+-hVCAM-1 D1D7-IgG diluted with assay buffer** to 2 nM was added in an amount of 50 μl/well. The substance under test diluted with 26 DMSO-assay buffer (in the co-presence or absence of 6% human serum albumin) was added in an amount of 50 μl/well (adding separately diluted solution to the wells for performing Scatchard analysis), the contents were stirred for 5 minutes with a plate mixer, and then the plate was left to stand still for one hour at room temperature. The binding inhibitory activity in the presence of human serum albumin (HSA) was examined by diluting the specimen with 26 DMSO-assay buffer containing 6% HSA (SIGMA Corp., c/n A-1653), and adding the resultant (HSA final concentration 3%). After 30 to 60 minutes of the addition of specimen, the plate contents were washed 4 times with buffer A at 4° C., an enhancing reagent (DELFIA SA) was added in an amount of 100 μl/well, and the plate was shaken for 5 minutes using a plate mixer. Subsequently, the fluorescence intensity was measured with a time-resolved fluorometer (DELFIA Wallac). The IC50 of the substance under test (the concentration for 50% inhibition of the binding between CHO cells and Eu^3+-hVCAM-1 D1D7-IgG) was determined from the binding rate obtained from the calculating expression of [(FT−FNS)−(FI−FNS)]/[(FT−FNS)]×100. Here, FT represents the fluorescence intensity of a well not containing the substance under test; FNS represents the fluorescence intensity of a well not containing the substance under test and hVCAM-1 D1D7-IgG; and FI represents the fluorescence intensity of a well containing the substance under test. The Kd value which represents the strength of binding, and Bmax (maximum binding amount) were estimated to be in the range of 0.06 to 20 nM according to the Scatchard analysis method. The evaluation results of the Ki value of the substance under test, and of the IC50 value in the presence of 3% HSA are presented in Tables 2 to 7.
The Ki value was calculated according to the above-described expression. ([L] is the ligand concentration)
[* buffer A: 25 mM HEPES (pH 7.5), 150 mM NaCl, 1 mM Ca^2+, 1 mM Mg^2+, 4 mM Mn2+;
** assay buffer: 25 mM HEPES (pH=7.5), 150 mM NaCl, 1 mM Ca^2+, 1 mM Mg^2+, 4 mM Mn^2+, 0.1% BSA, 20 μM DTPA, with/without 6% ALBUMIN, HUMAN SERUM (C/N A-1653, SIGMA)]

T1 sequence (P13612 34-1032): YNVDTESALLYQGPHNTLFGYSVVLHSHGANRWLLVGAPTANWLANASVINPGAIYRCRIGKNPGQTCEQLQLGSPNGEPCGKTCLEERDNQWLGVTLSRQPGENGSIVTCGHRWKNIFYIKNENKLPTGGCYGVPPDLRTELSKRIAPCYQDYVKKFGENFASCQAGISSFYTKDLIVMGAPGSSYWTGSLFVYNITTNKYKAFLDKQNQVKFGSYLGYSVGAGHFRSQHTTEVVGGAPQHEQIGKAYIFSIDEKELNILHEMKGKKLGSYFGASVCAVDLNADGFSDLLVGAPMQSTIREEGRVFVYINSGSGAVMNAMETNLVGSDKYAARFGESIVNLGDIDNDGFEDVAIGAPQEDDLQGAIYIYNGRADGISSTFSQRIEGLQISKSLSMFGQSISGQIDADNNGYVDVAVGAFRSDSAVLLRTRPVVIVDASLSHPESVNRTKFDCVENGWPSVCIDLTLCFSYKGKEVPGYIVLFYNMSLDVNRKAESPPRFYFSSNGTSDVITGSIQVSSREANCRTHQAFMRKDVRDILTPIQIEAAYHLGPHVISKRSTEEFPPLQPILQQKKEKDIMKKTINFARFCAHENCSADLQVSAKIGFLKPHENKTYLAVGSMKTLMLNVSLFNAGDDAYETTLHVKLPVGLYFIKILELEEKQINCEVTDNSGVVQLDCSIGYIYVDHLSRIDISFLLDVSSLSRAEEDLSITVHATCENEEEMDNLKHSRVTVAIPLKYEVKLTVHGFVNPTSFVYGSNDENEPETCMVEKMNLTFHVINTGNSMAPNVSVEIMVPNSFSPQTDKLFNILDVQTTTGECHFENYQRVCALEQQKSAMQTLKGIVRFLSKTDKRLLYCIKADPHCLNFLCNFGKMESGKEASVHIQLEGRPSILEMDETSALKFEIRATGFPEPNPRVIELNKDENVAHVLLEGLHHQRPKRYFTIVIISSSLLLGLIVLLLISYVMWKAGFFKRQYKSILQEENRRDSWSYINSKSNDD
T1 sequence (P05556 21-798): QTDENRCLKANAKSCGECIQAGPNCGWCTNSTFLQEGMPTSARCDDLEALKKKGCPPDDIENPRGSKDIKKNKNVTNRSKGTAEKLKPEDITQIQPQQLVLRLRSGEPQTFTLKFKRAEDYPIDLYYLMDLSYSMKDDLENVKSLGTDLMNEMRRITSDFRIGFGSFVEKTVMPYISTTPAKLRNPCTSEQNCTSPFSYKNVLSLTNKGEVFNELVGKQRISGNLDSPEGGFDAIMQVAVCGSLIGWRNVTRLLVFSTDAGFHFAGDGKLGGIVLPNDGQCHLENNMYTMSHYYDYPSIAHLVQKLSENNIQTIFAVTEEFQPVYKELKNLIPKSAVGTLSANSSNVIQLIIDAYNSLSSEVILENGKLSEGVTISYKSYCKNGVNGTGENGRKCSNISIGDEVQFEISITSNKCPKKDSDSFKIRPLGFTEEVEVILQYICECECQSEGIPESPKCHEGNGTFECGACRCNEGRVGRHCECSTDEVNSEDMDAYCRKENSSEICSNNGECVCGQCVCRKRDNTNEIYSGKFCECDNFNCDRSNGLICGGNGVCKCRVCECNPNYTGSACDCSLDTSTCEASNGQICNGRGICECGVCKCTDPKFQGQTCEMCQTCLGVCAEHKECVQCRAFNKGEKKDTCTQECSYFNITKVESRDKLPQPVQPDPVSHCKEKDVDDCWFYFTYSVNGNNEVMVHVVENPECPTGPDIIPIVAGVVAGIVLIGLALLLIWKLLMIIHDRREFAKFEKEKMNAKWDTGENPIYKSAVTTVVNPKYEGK

| Compound | Ki [nM] | IC50 [nM] |
| --- | --- | --- |
| CO[C@H]1CN([C@H]2C[C@@H](CO[C@H]3CC[C@H](C(=O)O)CC3)N(C(=O)Cc3cc(Cl)c(NC(=O)c4cn(C)c5ccccc45)cc3F)C2)C[C@H]1OC [Example 55, Trans-4-[1-[[5-chloro-2-fluoro-4-[(1-methyl-1H-indol-3-ylcarbonyl)amino]phenyl]acetyl]-(4S)-(cis-3,4-dimethoxypyrrolidin-1-yl)-(2S)-pyrrolidinylmethoxy]cyclohexanecarboxylic acid] | 2.6 | 9.2 |
| CN1CCN([C@H]2C[C@@H](CO[C@H]3CC[C@H](C(=O)O)CC3)N(C(=O)Cc3cc(Cl)c(NC(=O)c4csc5ccccc45)cc3Cl)C2)CC1=O [Example 153, Trans-4-[1-[[4-[(benzo[b]thiophen-3-ylcarbonyl)amino]-2,5-dichlorophenyl]acetyl]-(4S)-(4-methyl-3-oxopiperazin-1-yl)-(2S)-pyrrolidinylmethoxy]cyclohexanecarboxylic acid] | 1.5 | 9.3 |
| O=C(Nc1ccc(CC(=O)N2C[C@@H](N3CCN(CC(F)(F)F)CC3)C[C@H]2CO[C@H]2CC[C@H](C(=O)O)CC2)cc1Cl)c1csc2ccccc12 [Example 134, Trans-4-[1-[[4-[(benzo[b]thiophen-3-ylcarbonyl)amino]-3-chlorophenyl]acetyl]-(4S)-[4-(2,2,2-trifluoroethyl)piperazin-1-yl]-(2S)-pyrrolidinylmethoxy]cyclohexanecarboxylic acid] | 1.2 | 6.8 |
| Cn1cc(C(=O)Nc2cc(Cl)c(CC(=O)N3C[C@@H](N4CCN(C(C)(C)CF)CC4)C[C@H]3CO[C@H]3CC[C@H](C(=O)O)CC3)cc2Cl)c2ccccc21 [Example 119, Trans-4-[1-[[2,5-dichloro-4-[(1-methyl-1H-indol-3-ylcarbonyl)amino]phenyl]acetyl]-(4S)-[4-(1,1-dimethyl-2-fluoroethyl)piperazin-1-yl]-(2S)-pyrrolidinylmethoxy]cyclohexanecarboxylic acid] | 4.5 | 20 |
| O=C(Nc1cc(F)c(CC(=O)N2C[C@@H](N3CCN(CC(F)(F)F)CC3)C[C@H]2CO[C@H]2CC[C@H](C(=O)O)CC2)cc1Cl)c1c[nH]c2ccccc12 [Example 131, Trans-4-[1-[[5-chloro-2-fluoro-4-[(1H-indol-3-ylcarbonyl)amino]phenyl]acetyl]-(4S)-[4-(2,2,2-trifluoroethyl)piperazin-1-yl]-(2S)-pyrrolidinylmethoxy]cyclohexanecarboxylic acid] | 1.1 | 1.8 |
| C[C@@H]1CN([C@H]2C[C@@H](CO[C@H]3CC[C@H](C(=O)O)CC3)N(C(=O)Cc3cc(Cl)c(NC(=O)c4coc5ccccc45)cc3F)C2)C[C@H](C)N1C [Example 146, Trans-4-[1-[[4-[(benzo[b]furan-3-ylcarbonyl)amino]-5-chloro-2-fluorophenyl]acetyl]-(4S)-(cis-1,2,6-trimethylpiperazin-4-yl)-(2S)-pyrrolidinylmethoxy]cyclohexanecarboxylic acid] | 2.6 | 7.6 |
| CC1CCCN1[C@H]1C[C@@H](CO[C@H]2CC[C@H](C(=O)O)CC2)N(C(=O)Cc2cc(Cl)c(NC(=O)c3csc4ccccc34)cc2F)C1 (stereo partly drawn) [Example 40, Trans-4-[1-[[4-[(benzo[b]thiophen-3-ylcarbonyl)amino]-5-chloro-2-fluorophenyl]acetyl]-(4S)-(2-methylpyrrolidin-1-yl)-(2S)-pyrrolidinylmethoxy]cyclohexanecarboxylic acid] | 2 | 9.1 |
| CO[C@@H]1CN([C@H]2C[C@@H](CO[C@H]3CC[C@H](C(=O)O)CC3)N(C(=O)Cc3cc(Cl)c(NC(=O)c4cn(C)c5ccccc45)cc3Cl)C2)C[C@H]1OC [Example 64, Trans-4-[1-[[2,5-dichloro-4-[(1-methyl-1H-indol-3-ylcarbonyl)amino]phenyl]acetyl]-(4S)-[(3R,4R)-dimethoxypyrrolidin-1-yl]-(2S)-pyrrolidinylmethoxy]cyclohexanecarboxylic acid] | 5 | 33 |
| Cn1cc(C(=O)Nc2cc(Cl)c(CC(=O)N3C[C@@H](N4CCCCC4)C[C@H]3CO[C@H]3CC[C@H](C(=O)O)CC3)cc2Cl)c2ccccc21 [Example 96, Trans-4-[1-[[2,5-dichloro-4-[(1-methyl-1H-indol-3-ylcarbonyl)amino]phenyl]acetyl]-(4S)-(piperidin-1-yl)-(2S)-pyrrolidinylmethoxy]cyclohexanecarboxylic acid] | 3.9 | 7.4 |
| C[C@@H]1CN([C@H]2C[C@@H](CO[C@H]3CC[C@H](C(=O)O)CC3)N(C(=O)Cc3cc(Cl)c(NC(=O)c4c[nH]c5ccccc45)cc3F)C2)C[C@H](C)O1 [Example 90, Trans-4-[1-[[5-chloro-2-fluoro-4-[(1H-indol-3-ylcarbonyl)amino]phenyl]acetyl]-(4S)-(cis-2,6-dimethylmorpholin-4-yl)-(2S)-pyrrolidinylmethoxy]cyclohexanecarboxylic acid] | 1.2 | 2.4 |
| O=C(Nc1cc(Cl)c(CC(=O)N2C[C@@H](N3CCN(C4CC4)CC3)C[C@H]2CO[C@H]2CC[C@H](C(=O)O)CC2)cc1Cl)c1coc2ccccc12 [Example 140] | 1.8 | 7.6 |
| CCO[C@H]1[C@H](N2CCCCC2)CN(C(=O)Cc2cc(Cl)c(NC(=O)c3cn(C)c4ccccc34)cc2F)[C@@H]1CO[C@H]1CC[C@H](C(=O)O)CC1 [Example 97, Trans-4-[1-[[5-chloro-2-fluoro-4-[(1-methyl-1H-indol-3-ylcarbonyl)amino]phenyl]acetyl]-(3R)-ethoxy-(4R)-(piperidin-1-yl)-(2R)-pyrrolidinylmethoxy]cyclohexanecarboxylic acid] | 1.6 | 4.9 |
| O=C(Nc1cc(Cl)c(CC(=O)N2C[C@@H](N3CCN(C4CCCCC4)CC3)C[C@H]2CO[C@H]2CC[C@H](C(=O)O)CC2)cc1Cl)c1coc2ccccc12 [Example 143, Trans-4-[1-[[4-[(benzo[b]furan-3-ylcarbonyl)amino]-2,5-dichlorophenyl]acetyl]-(4S)-[4-cyclohexylpiperazin-1-yl]-(2S)-pyrrolidinylmethoxy]cyclohexanecarboxylic acid] | 3.5 | 14 |
| Cn1cc(C(=O)Nc2cc(F)c(CC(=O)N3C[C@@H](N4CC5CC4CO5)C[C@H]3CO[C@H]3CC[C@H](C(=O)O)CC3)cc2Cl)c2ccccc21 (stereo partly drawn) [Example 163, Trans-4-[1-[[5-chloro-2-fluoro-4-[(1-methyl-1H-indol-3-ylcarbonyl)amino]phenyl]acetyl]-(4S)-[(1S,4S)-2-oxa-5-azabicyclo[2.2.1]heptan-5-yl]-(2S)-pyrrolidinylmethoxy]cyclohexanecarboxylic acid] | 6.4 | 36 |
| CCOC1CCN([C@H]2C[C@@H](CO[C@H]3CC[C@H](C(=O)O)CC3)N(C(=O)Cc3cc(Cl)c(NC(=O)c4coc5ccccc45)cc3Cl)C2)CC1 [Example 105, Trans-4-[1-[[4-[(benzo[b]furan-3-ylcarbonyl)amino]-2,5-dichlorophenyl]acetyl]-(4S)-(4-ethoxypiperidin-1-yl)-(2S)-pyrrolidinylmethoxy]cyclohexanecarboxylic acid] | 2 | 15 |
| CCC1(OC)CN([C@H]2C[C@@H](CO[C@H]3CC[C@H](C(=O)O)CC3)N(C(=O)Cc3cc(Cl)c(NC(=O)c4csc5ccccc45)cc3F)C2)C1 [Example 17, Trans-4-[1-[[4-[(benzo[b]thiophen-3-ylcarbonyl)amino]-5-chloro-2-fluorophenyl]acetyl]-(4S)-(3-ethyl-3-methoxyazetidin-1-yl)-(2S)-pyrrolidinylmethoxy]cyclohexanecarboxylic acid] | 1.8 | 48 |
| Cn1cc(C(=O)Nc2cc(F)c(CC(=O)N3C[C@@H](N4CCN(CC(F)F)CC4)C[C@H]3CO[C@H]3CC[C@H](C(=O)O)CC3)cc2Cl)c2ccccc21 [Example 121, Trans-4-[1-[[5-chloro-2-fluoro-4-[(1-methyl-1H-indol-3-ylcarbonyl)amino]phenyl]acetyl]-(4S)-[4-(2,2-difluoroethyl)piperazin-1-yl]-(2S)-pyrrolidinylmethoxy]cyclohexanecarboxylic acid] | 3.2 | 11 |
